Source: patent US20080214555A1 (priority 2007, published 2008)
Where two headings read alike, the source gives them in different places.

Tests used:
[1] = system: patients with non-ST elevation acute coronary syndrome; assay: MERLIN-TIMI 36: HbA1c and hyperglycemia; format: in vivo, human
Description: HbA1c data are reported as least-square means. Patients categorized as “diabetic” had been diagnosed as diabetic before or at the time of randomization. Patients categorized as “no diabetes” had not been diagnosed as diabetic before or at the time of randomization. Some patients characterized as “no diabetes” may have been diagnosed as “diabetic” during the trial; however, these patients are still listed in the “no diabetes” category in FIG. 4B.

[2] = system: patients with non-ST elevation acute coronary syndrome
[3] = system: patients with non-ST elevation acute coronary syndrome; assay: MERLIN-TIMI 36: ischemia on Holter / continuous ECG (CECG); format: in vivo, human
Protocol: Median clinical follow-up was 12 months. At randomization, 3-lead CECG monitoring was initiated for median duration of 6.9 days. Recurrent ischemia on CECG was defined as ST dep >1 mm from baseline lasting >1 min. The TRS is calculated as the sum of seven presenting characteristics: 1) age >65 yrs, 2) >3 cardiac risk factors, 3) documented coronary artery disease, 4) recent severe angina, 5) ST deviation >0.5 mm, 6) elevated cardiac markers, and 7) prior aspirin use and is categorized as low (0-2), moderate (3-4), or high (>4) risk.
The data for total duration (minutes) of ischemia on Holter between randomization and 72 hours from MERLIN-TIMI 36 is shown in Table 19 below.
At randomization, 6355 patients (99%) had 3-lead CECG monitoring initiated (median duration 6.9 days). The primary CECG endpoint was the rate of ST dep ≧1 mm from baseline lasting ≧1 minute with heart rate at onset <100 bpm. Exploratory analyses using ST dep ≧0.5 mm were also performed.

[4] = Baseline (in-hospital visit prior to randomization), all patients dosed, n = 3268
[5] = Diabetes at enrollment, n = 1098, Baseline
[6] = Diabetes at enrollment, n = 1098, Final Visit
[7] = Diabetes at enrollment, n = 1098, Month 4
[8] = Diabetes at enrollment, n = 1098, Month 8
[9] = Diabetes at enrollment, n = 1098, Month 16
[10] = Final Visit, all patients dosed, n = 3268
[11] = Month 4, all patients dosed, n = 3268
[12] = Month 8, all patients dosed, n = 3268
[13] = Month 16, all patients dosed, n = 3268
[14] = No Diabetes at enrollment, n = 2170, Baseline
[15] = No Diabetes at enrollment, n = 2170, Final Visit
[16] = No Diabetes at enrollment, n = 2170, Month 4
[17] = No Diabetes at enrollment, n = 2170, Month 8
[18] = No Diabetes at enrollment, n = 2170, Month 16
[19] = at 4 months, 4306 patients with serial measurements
[20] = patients with DM treated with ranolazine
[21] = 30 days, all patients dosed, n = 3268
[22] = 60 days, all patients dosed, n = 3268
[23] = 360 days, all patients dosed, n = 3268
[24] = 540 days, all patients dosed, n = 3268
[25] = endpoint death or CV hospitalization, all patients dosed, n = 3268
[26] = ranolazine vs placebo, all patients dosed

SMILES: COc1ccccc1OCC(O)CN1CCN(CC(=O)Nc2c(C)cccc2C)CC1 (racemic) [Ranolazine, (±)-N-(2,6-dimethylphenyl)-4-[2-hydroxy-3-(2-methoxyphenoxy)-propyl]-1-piperazineacetamide]
- Patients with HbA1C ≧7%, number [1, 4]: 655
- Patients with HbA1C ≧7%, proportion [1, 4]: (24%)
- Patients with HbA1C ≧7%, number [1, 5]: 542
- Patients with HbA1C ≧7%, proportion [1, 5]: (57%)
- Patients with HbA1C ≧7%, number [1, 6]: 324
- Patients with HbA1C ≧7%, proportion [1, 6]: (42%)
- Patients with HbA1C ≧7%, number [1, 7]: 326
- Patients with HbA1C ≧7%, proportion [1, 7]: (41%)
- Patients with HbA1C ≧7%, number [1, 8]: 263
- Patients with HbA1C ≧7%, proportion [1, 8]: (44%)
- Patients with HbA1C ≧7%, number [1, 9]: 63
- Patients with HbA1C ≧7%, proportion [1, 9]: (48%)
- Patients with HbA1C ≧7%, number [1, 10]: 416
- Patients with HbA1C ≧7%, proportion [1, 10]: (17%)
- Patients with HbA1C ≧7%, number [1, 11]: 404
- Patients with HbA1C ≧7%, proportion [1, 11]: (17%)
- Patients with HbA1C ≧7%, number [1, 12]: 335
- Patients with HbA1C ≧7%, proportion [1, 12]: (18%)
- Patients with HbA1C ≧7%, number [1, 13]: 84
- Patients with HbA1C ≧7%, proportion [1, 13]: (20%)
- Patients with HbA1C ≧7%, number [1, 14]: 113
- Patients with HbA1C ≧7%, proportion [1, 14]: (6%)
- Patients with HbA1C ≧7%, number [1, 15]: 92
- Patients with HbA1C ≧7%, proportion [1, 15]: (6%)
- Patients with HbA1C ≧7%, number [1, 16]: 78
- Patients with HbA1C ≧7%, proportion [1, 16]: (5%)
- Patients with HbA1C ≧7%, number [1, 17]: 72
- Patients with HbA1C ≧7%, proportion [1, 17]: (6%)
- Patients with HbA1C ≧7%, number [1, 18]: 21
- Patients with HbA1C ≧7%, proportion [1, 18]: (7%)
- HbA1c (least-square mean) [1, 19]: 5.9%
- HbA1c change from baseline [1, 19]: −0.30%
- Worsening of hyperglycemia (>1% increase in HbA1c) ([1]; diabetic patients, by 1 year of follow-up): 14.2%
- HR, worsening of hyperglycemia ([1]; diabetic patients, ranolazine vs placebo, 95% CI 0.51, 0.77): 0.63
- Reported hypoglycemia ([1]; patients with DM): 3%
- HbA1c after decline [1, 20]: 6.8%
- HbA1c Δ [1, 20]: −0.64%
- HbA1c before decline ([1]; patients with DM treated with ranolazine, starting value): 7.2%
- Patients achieving an HbA1c <7% ([1]; patients with DM, at 4 months): 59%
- Incidence of new fasting glucose >110 mg/dL or HbA1c ≧6% ([1]; patients without DM at randomization or baseline (fasting glucose <100 mg/dL and HbA1c <6%)): 31.8%
- HR, new fasting glucose >110 mg/dL or HbA1c ≧6% ([1]; patients without DM, ranolazine vs placebo, 95% CI 0.53, 0.88): 0.68
- Incidence (Kaplan-Meier estimate) of death from any cause [2, 21]: 1.8%
- Incidence (Kaplan-Meier estimate) of death or CV hospitalization [2, 21]: 9.2%
- Incidence (Kaplan-Meier estimate) of death from any cause [2, 22]: 2.2%
- Incidence (Kaplan-Meier estimate) of death or CV hospitalization [2, 22]: 15.0%
- Incidence (Kaplan-Meier estimate) of death from any cause ([2]; 180 days, all patients dosed, n = 3268): 3.4%
- Incidence (Kaplan-Meier estimate) of death from any cause [2, 23]: 5.3%
- Incidence (Kaplan-Meier estimate) of death or CV hospitalization [2, 23]: 32.8%
- Incidence (Kaplan-Meier estimate) of death from any cause [2, 24]: 7.0%
- Incidence (Kaplan-Meier estimate) of death or CV hospitalization [2, 24]: 37.6%
- Symptomatic documented arrhythmias ([2]; Example 7): 3.0%
- Clinically reported sudden cardiac death, number ([2]; Example 8): 56
- Pts with events: death from any cause (safety endpoint) ([2]; all patients dosed, n = 3268): 172
- Pts with events: first occurrence of death or CV hospitalization (safety endpoint) ([2]; all patients dosed, n = 3268): 1037
- Symptomatic documented arrhythmias: Bradyarrhythmias, % ([2]; all patients dosed, n = 3268): 1.0%
- Symptomatic documented arrhythmias: Bradyarrhythmias, number ([2]; all patients dosed, n = 3268): 34
- Symptomatic documented arrhythmias: Cardiac arrest NOS, % ([2]; all patients dosed, n = 3268): 0.3%
- Symptomatic documented arrhythmias: Cardiac arrest NOS, number ([2]; all patients dosed, n = 3268): 10
- Symptomatic documented arrhythmias: Pts. with Arrhythmias - Overall, % ([2]; all patients dosed, n = 3268): 3.0%
- Symptomatic documented arrhythmias: Pts. with Arrhythmias - Overall, number ([2]; all patients dosed, n = 3268): 99
- Symptomatic documented arrhythmias: Supraventricular arrhythmias, % ([2]; all patients dosed, n = 3268): 1.2%
- Symptomatic documented arrhythmias: Supraventricular arrhythmias, number ([2]; all patients dosed, n = 3268): 38
- Symptomatic documented arrhythmias: Ventricular arrhythmias, % ([2]; all patients dosed, n = 3268): 0.7%
- Symptomatic documented arrhythmias: Ventricular arrhythmias, number ([2]; all patients dosed, n = 3268): 22
- Endpoint-defining events: CV hospitalization, % of pts with events [2, 25]: 89.3%
- Endpoint-defining events: CV hospitalization, number [2, 25]: 926
- Endpoint-defining events: Death, % of pts with events [2, 25]: 10.7%
- Endpoint-defining events: Death, number [2, 25]: 111
- HR, total mortality ([2]; ranolazine vs placebo, 95% CI 0.80-1.22): 0.99
- Relative risk (SE), death from any cause [2, 26]: 0.988 (0.11)
- Relative risk (SE), death or CV hospitalization [2, 26]: 0.981 (0.04)
- Symptomatic documented arrhythmias ([2]; women): 2.6%
- Rate of primary CECG endpoint events ([3]; >72 hours after randomization): 11.6%
- RR, primary CECG endpoint events ([3]; >72 hours after randomization, ranolazine vs placebo): 0.86
- Rate of primary CECG endpoint (ST dep ≧1 mm lasting ≧1 minute, heart rate at onset <100 bpm) ([3]; entire 7 day recording): 19.2%
- Rate of CECG ischemic events ([3]; lower ischemic threshold of 0.5 mm): 22.9
- RR, CECG ischemic events ([3]; lower ischemic threshold of 0.5 mm, ranolazine vs placebo): 0.91
